Assay results taken from BigSolDB 2.1.

CC1=C(O)C(=O)C(C)O1 (configuration not stated)
solubility (mole fraction)
Conditions | 283.15 K | 288.15 K | 293.15 K | 298.15 K | 303.15 K | 308.15 K | 313.15 K
in ethanol | 0.12 | 0.151 | 0.188 | 0.234 | 0.287 | 0.351 | 0.427
in methanol | 0.143 | 0.174 | 0.21 | 0.257 | 0.31 | 0.374 | 0.449
in n-butanol | 0.0954 | 0.124 | 0.156 | 0.196 | 0.247 | 0.307 | 0.382
in n-hexane | 0.0054 | 0.0073 | 0.0096 | 0.0125 | 0.0163 | 0.0211 | 0.0271
in n-propanol | 0.11 | 0.138 | 0.174 | 0.216 | 0.268 | 0.332 | 0.408
in water | 0.0091 | 0.015 | 0.0251 | 0.0408 | 0.0665 | 0.107 | 0.173
